According to publication PMC13032676, “PGM1 deficiency is linked to sarcomeric and mitochondrial dysfunction in patient-derived iPSC-cardiomyocytes” (Journal of Translational Medicine, 2026):
“Also recorded” adds a separate entry of the source.

Experiments:
[1] = system: PGM1-deficient iCMs; test: Untargeted N-glycoproteomics; format: cell-based, human; conditions: low galactose in culture medium (in-house estimate 0.5 mM), no galactose-free arm
Procedure: Untargeted proteomics and N-glycoproteomics were performed to assess the (glyco)protein expression changes between PGM1-deficient and CTR iCMs based on previously published protocols (see supplementary materials for details).
Proteomics and N-glycoproteomics data analysis was performed as described previously. The proteomics data were searched using Sequest search engine in Proteome Discoverer 3.0 against the human Uniprot protein database. The N-glycoproteomics data using the publicly available software pGlyco version 3 with an in-built N-glycan database for identifying glycans and human Uniprot protein database for identifying peptide sequence. Two missed cleavages were allowed for both proteomics and glycoproteomics analysis. Error tolerance for precursor and fragment ions were set to 10 ppm and 0.02 Da, respectively, for proteomics and 10 ppm and 20 ppm, respectively, for glycoproteomics. […] For proteomics, quantitation of peptides across PGM1-CDG and […] was done using TMT reporter ion intensities using “reporter ion quantifier” node. To quantify glycopeptides, reporter ion quantification was performed for glycoproteomics raw files in Proteome Discoverer and glycopeptide IDs obtained from pGlyco were matched with quantitation on a scan-to-scan basis (MS/MS). […]

[2] = system: PGM1-deficient fibroblasts; conditions: ref [5], [61]; cited from earlier work
Description: First, we performed targeted tracer metabolomics studies of central carbon metabolism. Previously, decreased UDP-Hexose levels were linked to reduced glycosylation in PGM1-CDG, which improve in presence of galactose.

[3] = system: PGM1-CDG individuals; conditions: [5], [10], [11], [13] (b5), ref [7], cited from earlier work
[4] = biological target: T1, human PGM1 (Homo sapiens, UniProt P36871); test: Microscale-thermophoresis binding of ZM peptides to PGM1; conditions: His6-PGM1 labeled with RED-tris-NTA, 50 nM labeled PGM1, peptide 375 mM to 11.4 nM (16-step series), 10 min in the dark, 22 °C, 40% excitation power, 40% MST power, MO.Affinity v.2.2.4
T1 construct: made in house
T1 sequence (P36871 1-562): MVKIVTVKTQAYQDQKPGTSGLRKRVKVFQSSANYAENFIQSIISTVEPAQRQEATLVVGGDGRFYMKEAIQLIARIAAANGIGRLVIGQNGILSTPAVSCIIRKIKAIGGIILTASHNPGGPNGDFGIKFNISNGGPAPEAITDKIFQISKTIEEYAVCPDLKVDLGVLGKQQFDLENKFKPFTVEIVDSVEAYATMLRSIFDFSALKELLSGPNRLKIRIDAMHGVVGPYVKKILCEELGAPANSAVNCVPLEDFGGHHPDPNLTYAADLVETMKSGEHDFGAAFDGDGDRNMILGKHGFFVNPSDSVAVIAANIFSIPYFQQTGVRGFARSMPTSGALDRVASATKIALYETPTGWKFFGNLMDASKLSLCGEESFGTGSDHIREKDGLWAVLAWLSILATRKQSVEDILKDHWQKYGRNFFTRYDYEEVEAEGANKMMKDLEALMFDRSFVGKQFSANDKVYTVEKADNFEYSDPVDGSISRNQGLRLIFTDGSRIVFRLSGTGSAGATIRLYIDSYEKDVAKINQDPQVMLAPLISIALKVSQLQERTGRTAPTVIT
Description: For microscale-thermophoresis studies, a peptide representing the conserved Zasp motif (ZM) of ZASP/Cypher (26-mer: […]) and a corresponding peptide with the T106I mutation (underscored in sequence) were synthesized by ABI Scientific. A vector for recombinant expression of human PGM1 has been previously described. PGM1 was expressed and purified as previously described.
For binding studies, PGM1 was labeled using a commercial kit (NanoTemper Technologies, Inc.) according to the manufacturer’s specifications. Briefly, PGM1 was incubated at room temperature for 30 min with RED-tris-NTA dye, which specifically labels His6 tags, resulting in 100 nM labeled protein. The wild-type and T106I ZM peptides were serially diluted into a series of 16 PCR strip tubes and mixed 1:1 with labeled PGM1. The final concentration series of each peptide was […] to 11.4 nM, with all tubes containing 50 nM labeled PGM1. Samples were incubated in the dark for 10 min prior to use. Standard capillaries (Nanotemper MO-K022) were used to draw up the liquid and placed onto the sample tray of the Monolith NT.115 instrument (NanoTemper). Measurements were performed at 22 °C with control software at 40% excitation power and 40% MST power. Kd values were calculated using the MO. Affinity software v.2.2.4 (NanoTemper Technologies).

O=C[C@H](O)[C@@H](O)[C@@H](O)[C@H](O)CO [galactose]
effect on glycosylation (in words) [1]: partially restores glycosylation in PGM1-deficient iCMs; also recorded: sufficient to partially restore glycosylation in PGM1-deficient iCMs | effect on UDP-hexose levels (in words) [2]: normalize UDP-hexose levels in PGM1-deficient fibroblasts | effect on cardiac (and skeletal muscle) manifestations (in words) ([3]; galactose therapy in PGM1-CDG, ref [3], [7], [18]): fails to ameliorate cardiac and skeletal muscle involvement; also recorded: cardiac involvement does not respond to galactose therapy; also recorded: cardiac manifestations remain largely refractory to treatment | effect on glycosylation and systemic features (in words) ([3]; oral galactose supplementation in PGM1-CDG, ref [1], [3], [12]): improves systemic features; also recorded: effective correction of glycosylation defects and improvement of systemic clinical features

LDB3 T206I mutant: corresponding peptide with the T106I mutation; dilated cardiomyopathy-associated LDB3 T206I mutant peptide (SSQPRQYNNPIGLYSAEILREMAQMY)
in vitro binding affinity to PGM1 (Kd, in words) [4]: substantially reduced binding affinity (high µM)

SSQPRQYNNPIGLYSAETLREMAQMY [wild-type ZM peptide, peptide representing the conserved Zasp motif (ZM) of ZASP/Cypher (26-mer)]
in vitro binding affinity to PGM1 (Kd, in words) [4]: high-affinity binding (low µM)
